Assay results from patent publication US11633415B2, “Compounds and methods useful for treating or preventing cancers” (priority 2017, dated 2023).
Where two headings read alike, the source gives them in different places.

Columns and labels:
CSNK1A1 [1] = target: T1, CSNK1A1 (Homo sapiens (Human), UniProt P48729); assay: Kinase enzymatic IC50 (Carna Biosciences mobility shift assay); format: biochemical
Description: Enzymatic assays were performed using a mobility shift assay on the LabChip system. Purified kinase protein was incubated with ATP, substrate, and assay buffer (20 mM Hepes—pH 7.5; 5 mM MgCl2, and 0.01% Triton X-100). The assay reaction was initiated with 5 μM ATP and with each compound present. Compounds were tested at the KM,ATP for the protein target (GST-tagged full-length human CK1α, available from Carna Biosciences, Japan) or over a range of ATP concentrations between 5 μM and 9 μM. […] AC50 values were determined using phosphorylated and unphosphorylated substrates.

protein kinase A (PKA) = details: range stated jointly for PKA and insulin receptor kinase; cited from earlier work
insulin receptor kinase = insulin receptor kinase (Homo sapiens (Human), UniProt P06213); details: range stated jointly for PKA and insulin receptor kinase; cited from earlier work
CSNK1A1 [2] = target: T1, CSNK1A1; assay: Kinomescan competition binding assay, confirmatory Kd
From the text: The Kinomescan assay is a site-directed small molecule competition binding assay to quantitatively measure interactions between test compounds and more than 450 kinase assays. The assay employs DNA-tagged kinase proteins and a bead-immobilized kinase ligand. […] The assay result is detected using a multiplex quantitative PCR approach.

CSNK1D = CSNK1D (Homo sapiens (Human), UniProt P48730); assay: as above; details: confirmatory testing
From the text: (§1) The Kinomescan assay is a site-directed small molecule competition binding assay to quantitatively measure interactions between test compounds and more than 450 kinase assays. The assay employs DNA-tagged kinase proteins and a bead-immobilized kinase ligand. Active test compounds compete with the immobilized ligand and decrease the amount of bead-bound kinase. The assay result is detected using a multiplex quantitative PCR approach.

HT-29 = assay: Cell viability by ATP abundance at 5 days (Cell Titer Glo); format: cell-based
Description: In addition to its role as a target in hematologic malignancies, CSNK1A1 expression is also essential to certain epithelial cancer cell lines. […] Results from each independent RNA interference construct were summarized into a single gene-level score, and the colorectal distribution of sensitivities was evaluated against the other lineages by the Mann-Whitney test as shown in FIG. 4A. […] Cell viability was assessed by ATP abundance at 5 days using the Cell Titer Glo assay.
Cell viability assays were conducted against colorectal carcinoma cell line HT29. Cells were plated in wells and at 24 hours after plating, compounds were added to determine their effect on cell viability at various dosages. After 48 hours from compound administration, the cell viability was determined and the IC50 values were calculated. […] FIG. 4B illustrates the results of another cell viability measurement and IC50 value for Compound 1 assessed by ATP abundance on HT29 at 5 days.

[3] = test system: more than 450 kinase assays; assay: Kinome-wide profiling using the Kinomescan assay; format: binding
From the text: as §1

[4] = Table 1, CSNK1A1 inhibitors, read-out: IC50

T1 sequence (P48729 whole entry): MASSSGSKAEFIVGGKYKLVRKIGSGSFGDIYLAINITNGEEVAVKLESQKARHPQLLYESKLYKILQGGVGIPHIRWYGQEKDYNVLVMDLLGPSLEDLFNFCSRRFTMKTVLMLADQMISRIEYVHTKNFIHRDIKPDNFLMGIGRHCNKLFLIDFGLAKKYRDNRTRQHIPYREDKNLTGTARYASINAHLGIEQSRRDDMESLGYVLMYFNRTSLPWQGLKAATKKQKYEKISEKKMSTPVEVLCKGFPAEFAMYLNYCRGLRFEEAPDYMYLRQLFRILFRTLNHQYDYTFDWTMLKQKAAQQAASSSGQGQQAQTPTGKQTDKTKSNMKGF
Sequence of CSNK1D (P48730 whole entry): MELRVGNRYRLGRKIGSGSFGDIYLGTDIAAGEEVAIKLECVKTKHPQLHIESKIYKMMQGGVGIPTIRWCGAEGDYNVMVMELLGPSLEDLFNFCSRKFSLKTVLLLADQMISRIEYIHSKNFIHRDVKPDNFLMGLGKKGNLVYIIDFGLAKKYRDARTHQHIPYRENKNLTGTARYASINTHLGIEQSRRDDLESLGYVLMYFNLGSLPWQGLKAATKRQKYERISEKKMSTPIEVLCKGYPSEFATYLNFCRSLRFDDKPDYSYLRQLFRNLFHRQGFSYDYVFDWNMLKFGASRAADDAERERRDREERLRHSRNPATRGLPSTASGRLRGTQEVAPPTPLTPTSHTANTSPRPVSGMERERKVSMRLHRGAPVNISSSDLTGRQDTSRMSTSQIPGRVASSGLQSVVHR
Sequence of insulin receptor kinase (P06213 28-1382): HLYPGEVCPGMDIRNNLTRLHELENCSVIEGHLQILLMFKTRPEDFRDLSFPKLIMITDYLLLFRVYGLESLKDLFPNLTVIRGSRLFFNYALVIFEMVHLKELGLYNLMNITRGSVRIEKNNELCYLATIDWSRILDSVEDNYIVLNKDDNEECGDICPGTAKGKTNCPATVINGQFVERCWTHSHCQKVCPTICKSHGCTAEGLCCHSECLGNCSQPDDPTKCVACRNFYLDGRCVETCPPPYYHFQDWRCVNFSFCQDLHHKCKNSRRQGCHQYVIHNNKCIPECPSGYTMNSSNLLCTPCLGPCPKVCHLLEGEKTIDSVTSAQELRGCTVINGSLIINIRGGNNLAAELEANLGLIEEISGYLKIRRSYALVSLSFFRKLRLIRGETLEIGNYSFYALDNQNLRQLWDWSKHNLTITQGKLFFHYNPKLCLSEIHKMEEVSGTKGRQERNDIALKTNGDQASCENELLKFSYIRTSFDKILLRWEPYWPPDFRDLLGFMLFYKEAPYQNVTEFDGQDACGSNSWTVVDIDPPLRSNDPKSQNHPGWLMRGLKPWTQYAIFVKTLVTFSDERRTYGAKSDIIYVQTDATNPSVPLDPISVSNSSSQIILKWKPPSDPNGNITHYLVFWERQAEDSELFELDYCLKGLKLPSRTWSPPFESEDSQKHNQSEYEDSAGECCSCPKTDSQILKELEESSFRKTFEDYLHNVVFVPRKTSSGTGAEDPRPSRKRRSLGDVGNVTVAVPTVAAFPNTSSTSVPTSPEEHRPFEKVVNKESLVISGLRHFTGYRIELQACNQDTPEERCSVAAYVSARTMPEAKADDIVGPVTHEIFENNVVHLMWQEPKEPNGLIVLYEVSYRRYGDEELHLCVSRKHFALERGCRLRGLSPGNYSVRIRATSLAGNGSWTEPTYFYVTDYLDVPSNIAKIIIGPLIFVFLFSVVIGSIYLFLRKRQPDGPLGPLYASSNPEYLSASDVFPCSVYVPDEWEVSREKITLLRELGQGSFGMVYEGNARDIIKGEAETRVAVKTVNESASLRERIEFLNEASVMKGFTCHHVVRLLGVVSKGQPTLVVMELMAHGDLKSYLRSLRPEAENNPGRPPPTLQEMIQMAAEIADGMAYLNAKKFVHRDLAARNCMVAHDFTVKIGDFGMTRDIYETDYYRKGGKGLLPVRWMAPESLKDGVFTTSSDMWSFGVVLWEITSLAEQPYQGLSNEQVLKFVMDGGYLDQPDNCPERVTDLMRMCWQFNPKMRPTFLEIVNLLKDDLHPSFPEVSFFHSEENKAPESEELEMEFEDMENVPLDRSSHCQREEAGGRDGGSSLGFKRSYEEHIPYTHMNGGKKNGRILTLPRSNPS

Compound	IC50 (CSNK1A1 [1]; [4]) [nM]	IC50 (CSNK1A1 [1]; known inhibitors, background text (rounded Table 1 values), read-out: IC50 against CSNK1A1) [nM]	IC50 (protein kinase A (PKA)) [nM]	IC50 (insulin receptor kinase) [nM]	Kd (CSNK1A1 [2]) [nM]	Kd (CSNK1D) [nM]	IC50 (CSNK1A1 [1]) [nM]	cell viability of HT-29 (HT-29)	binding specificity in kinome-wide profiling ([3]; 450 kinases tested at a single dose of 10 μM)	number of kinases bound ([3]; out of over 400 kinases tested)
Nc1ncnc2c1c(I)cn2[C@@H]1O[C@H](CO)[C@@H](O)[C@H]1O [5-iodotubercidin, 5-Iodo-7-β-D-ribofuranosyl-7H-pyrrolo[2,3-d]pyrimidin-4-amine, reference compound]	287	290	400 to 28000	400 to 28000						
CCN1CCN(c2nc3ccccc3nc2C(C#N)C(=O)OC2CCCCC2)CC1 (centres unmarked) [compound 1, cyclohexyl 2-cyano-2-(3-(4-ethylpiperazin-1-yl)quinoxalin-2-yl)acetate]	12900				1700	3200	10100	inhibited	remarkable specificity for compound binding to CSNK1A1	six
